US20170190671A1, “BIS(ARYL)CATECHOL DERIVATIVES AS HERBICIDES” (E I DU PONT DE NEMOURS AND COMPANY, priority 2014, published 2017)

Legend:
Assay type in all cases: in vivo
[1] = system: windgrass (Apera spica-venti); test: Test D postemergence; conditions: scale 0 to 100
In short: (§1)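 Ratings of 0–100 reflect visual comparison with control plants at 14 to 21 days. For preemergence, compound was sprayed on silt loam just after sowing; for postemergence, on plants 2 to 18 cm in height.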

[2] = system: chickweed (common chickweed, Stellaria media); test: Test D postemergence; conditions: scale 0 to 100
In short: as §1

[3] = system: deadnettle (henbit deadnettle, Lamium amplexicaule); test: Test D postemergence; conditions: scale 0 to 100
In short: as §1

[4] = system: winter wheat (Triticum aestivum); test: Test D postemergence; conditions: scale 0 to 100
In short: as §1

[5] = system: sedge, umbrella (small-flower umbrella sedge, Cyperus difformis); test: Test C flooded paddy; conditions: Flood, scale 0 to 100
Text: (§2) At time of treatment, test pots were flooded to 3 cm above the soil surface, treated by application of test compounds directly to the paddy water, and then maintained at that water depth for the duration of the test. Treated plants and controls were maintained in a greenhouse for 13 to 15 days, after which time all species were compared to controls and visually evaluated. […] A dash (-) response means no test result.

[6] = system: ducksalad (Heteranthera limosa); test: Test C flooded paddy; conditions: Flood, scale 0 to 100
Text: as §2

[7] = system: barnyardgrass (Echinochloa crus-galli); test: Test C flooded paddy; conditions: Flood, scale 0 to 100
Text: as §2

rice (Oryza sativa) = test: Test C flooded paddy; conditions: Flood, scale 0 to 100
Text: as §2

[8] = system: cocklebur (common cocklebur, Xanthium strumarium); test: Test E preemergence; conditions: scale 0 to 100
In short: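 Test chemicals, formulated in a non-phytotoxic solvent with surfactant, are applied to silt loam soil after sowing or sprayed over young plants (1–4 leaves) in potting medium. Plants are then kept in a greenhouse for 14 to 21 days and scored 0–100 for control.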

[9] = system: cutleaf geranium (Geranium dissectum); test: Test D postemergence; conditions: scale 0 to 100
In short: as §1

Compound	Plant response rating, Windgrass ([1]; 16 g ai/ha)	Plant response rating, Windgrass ([1]; 31 g ai/ha)	Plant response rating, Windgrass ([1]; 62 g ai/ha)	Plant response rating, Windgrass ([1]; 125 g ai/ha)	Plant response rating, Chickweed ([2]; 16 g ai/ha)	Plant response rating, Chickweed ([2]; 31 g ai/ha)	Plant response rating, Chickweed ([2]; 62 g ai/ha)	Plant response rating, Chickweed ([2]; 125 g ai/ha)	Plant response rating, Deadnettle ([3]; 16 g ai/ha)	Plant response rating, Deadnettle ([3]; 31 g ai/ha)	Plant response rating, Deadnettle ([3]; 62 g ai/ha)	Plant response rating, Deadnettle ([3]; 125 g ai/ha)	Plant response rating, Wheat, Winter ([4]; 16 g ai/ha)	Plant response rating, Wheat, Winter ([4]; 31 g ai/ha)	Plant response rating, Wheat, Winter ([4]; 62 g ai/ha)	Plant response rating, Wheat, Winter ([4]; 125 g ai/ha)	Plant response rating, Geranium, Cutleaf ([9]; 16 g ai/ha)	Plant response rating, Geranium, Cutleaf ([9]; 31 g ai/ha)	Plant response rating, Geranium, Cutleaf ([9]; 62 g ai/ha)	Plant response rating, Geranium, Cutleaf ([9]; 125 g ai/ha)	further results
N#Cc1cccc(Oc2ncc(Cl)cn2)c1Oc1ncc(Cl)cn1 [Compound 3, 2,3-bis[(5-chloro-2-pyrimidinyl)oxy]benzonitrile]	10	15	25	30	50	70	80	100	60	70	70	80	0	10	10	15	–	–	–	–	–
N#Cc1cccc(Oc2ncc(Cl)cn2)c1Oc1ncc(Br)cn1 [Compound 4, 2-[(5-bromo-2-pyrimidinyl)oxy]-3-[(5-chloro-2-pyrimidinyl)oxy]benzonitrile]	–	–	–	–	–	–	–	–	–	–	–	–	–	–	–	–	–	–	–	–	Plant response rating, Sedge, Umbrella ([5]; 31 g ai/ha): 0; Plant response rating, Sedge, Umbrella ([5]; 62 g ai/ha): 0; Plant response rating, Sedge, Umbrella ([5]; 125 g ai/ha): 75; Plant response rating, Sedge, Umbrella ([5]; 250 g ai/ha): 100; Plant response rating, Ducksalad ([6]; 31 g ai/ha): 0; Plant response rating, Ducksalad ([6]; 62 g ai/ha): 40; Plant response rating, Ducksalad ([6]; 125 g ai/ha): 100; Plant response rating, Ducksalad ([6]; 250 g ai/ha): 100; Plant response rating, Barnyardgrass ([7]; 31 g ai/ha): 0; Plant response rating, Barnyardgrass ([7]; 62 g ai/ha): 0; Plant response rating, Barnyardgrass ([7]; 125 g ai/ha): 20; Plant response rating, Barnyardgrass ([7]; 250 g ai/ha): 40; Plant response rating, Rice (rice (Oryza sativa); 31 g ai/ha): 0; Plant response rating, Rice (rice (Oryza sativa); 62 g ai/ha): 0; Plant response rating, Rice (rice (Oryza sativa); 125 g ai/ha): 0; Plant response rating, Rice (rice (Oryza sativa); 250 g ai/ha): 30
Clc1cnc(Oc2cccc(Br)c2Oc2ncc(Cl)cn2)nc1 [Compound 19, 2,2′-[[3-bromo-1,2-phenylene]bis(oxy)]bis[5-chloropyrimidine]]	–	–	–	–	–	–	–	–	–	–	–	–	–	–	–	–	–	–	–	–	Plant response rating, Cocklebur ([8]; 16 g ai/ha): 0; Plant response rating, Cocklebur ([8]; 62 g ai/ha): 0; Plant response rating, Cocklebur ([8]; 125 g ai/ha): 0
Fc1cccc(Oc2ncc(Cl)cn2)c1Oc1ccc(Cl)nc1 [Compound 20]	–	–	–	–	–	–	–	–	–	–	–	–	–	–	–	–	–	–	–	–	Plant response rating, Sedge, Umbrella ([5]; 31 g ai/ha): 0; Plant response rating, Sedge, Umbrella ([5]; 62 g ai/ha): 0; Plant response rating, Sedge, Umbrella ([5]; 125 g ai/ha): 65; Plant response rating, Sedge, Umbrella ([5]; 250 g ai/ha): 80; Plant response rating, Ducksalad ([6]; 31 g ai/ha): 0; Plant response rating, Ducksalad ([6]; 62 g ai/ha): 0; Plant response rating, Ducksalad ([6]; 125 g ai/ha): 45; Plant response rating, Ducksalad ([6]; 250 g ai/ha): 70; Plant response rating, Barnyardgrass ([7]; 31 g ai/ha): 0; Plant response rating, Barnyardgrass ([7]; 62 g ai/ha): 0; Plant response rating, Barnyardgrass ([7]; 125 g ai/ha): 0; Plant response rating, Barnyardgrass ([7]; 250 g ai/ha): 0; Plant response rating, Rice (rice (Oryza sativa); 31 g ai/ha): 0; Plant response rating, Rice (rice (Oryza sativa); 62 g ai/ha): 0; Plant response rating, Rice (rice (Oryza sativa); 125 g ai/ha): 0; Plant response rating, Rice (rice (Oryza sativa); 250 g ai/ha): 0
Fc1cccc(Oc2ncc(Cl)cn2)c1Oc1ncc(Cl)cn1 [Compound 21, 2,2′-[[3-fluoro-1,2-phenylene]bis(oxy)]bis[5-chloropyrimidine]]	–	–	–	–	–	–	–	–	–	–	–	–	–	–	–	–	–	–	–	–	Plant response rating, Cocklebur ([8]; 31 g ai/ha): 35; Plant response rating, Cocklebur ([8]; 62 g ai/ha): 40; Plant response rating, Cocklebur ([8]; 125 g ai/ha): 50
Fc1cnc(Oc2c(Br)cccc2Oc2ncc(Cl)cn2)nc1 [Compound 22]	5	10	25	35	30	75	75	75	50	50	65	90	0	5	5	10	45	55	55	60	–
Fc1cnc(Oc2c(F)cccc2Oc2ncc(Cl)cn2)nc1 [Compound 23]	10	10	15	20	60	70	70	80	10	20	55	70	0	0	0	0	25	45	45	65	–
FC(F)(F)c1cnc(Oc2c(Br)cccc2Oc2ncc(Cl)cn2)nc1 [Compound 24]	10	15	25	35	60	70	75	85	55	70	75	85	10	10	15	15	20	30	45	65	–
Fc1cccc(Oc2ncc(C(F)(F)F)cn2)c1Oc1ncc(Cl)cn1 [Compound 42, 5-chloro-2-[2-fluoro-6-[[5-(trifluoromethyl)-2-pyrimidinyl]oxy]phenoxy]pyrimidine]	25	40	50	60	65	65	85	90	35	40	60	75	0	5	10	20	–	–	–	–	–
